Where “and” joins values, the source holds several entries; their conditions need not be identical. Equal values may be shown once. Each block holds one compound with its values, some of them ahead of it.
Columns and labels:
[1] = Antiparasitic activity against Leishmania promastigotes (Leishmania donovani); assay type: functional
[2] = test system: Plasmodium falciparum; experiment: Antiparasitic activity against chloroquine-resistant Plasmodium falciparum W2; assay type: functional, organism-based
[3] = test system: Plasmodium falciparum; experiment: Antiparasitic activity against Plasmodium falciparum D6; assay type: functional, organism-based

Compound: NCCCN(Cc1ccc(-c2ccc(Br)cc2)o1)Cc1ccc(-c2ccc(Br)cc2)o1.O=C(O)C(F)(F)F
EC50 [1]: 8.51 µM
EC50 [2]: Not Active
EC50 ([3]; Plasmodium falciparum): 5.62 µM

Compound: CC(C)(C)c1ccc(COc2ccc(CN(CCCN)Cc3ccc(OCc4ccc(C(C)(C)C)cc4)cc3)cc2)cc1
EC50 [1]: 2.13 µM and 1.37 µM
EC50 [2]: 4.04 µM
EC50 ([2]; Plasmodium falciparum): 3.85 µM
EC50 [3]: 2.02 µM
EC50 ([3]; Plasmodium falciparum): 2.52 µM

Compound: NCCCN(Cc1ccc(OCc2ccc(Br)cc2)cc1)Cc1ccc(OCc2ccc(Br)cc2)cc1
EC50 [1]: 0.91 µM and 0.88 µM
EC50 [2]: 2.25 µM
EC50 ([2]; Plasmodium falciparum): 2.44 µM
EC50 [3]: 1.23 µM
EC50 ([3]; Plasmodium falciparum): 1.14 µM

Compound: NCCCCN(Cc1ccccc1)Cc1ccccc1.O=C(O)C(F)(F)F
EC50 [1]: 26.2 µM
EC50 [2]: Not Active
EC50 [3]: Not Active

Compound: CC(C)c1ccc(CN(CCCN)Cc2ccccc2)cc1
EC50 [1]: 1.58 µM
EC50 ([2]; Plasmodium falciparum): 2.19 µM
EC50 ([3]; Plasmodium falciparum): 7.31 µM

Compound: NCCCCN(Cc1ccc(OCc2ccccc2)cc1)Cc1ccc(OCc2ccccc2)cc1
EC50 [1]: 1.85 µM
EC50 ([2]; Plasmodium falciparum): 4.88 µM
EC50 ([3]; Plasmodium falciparum): 3.2 µM

Compound: NCCCCN(Cc1ccc(OCc2c(F)c(F)c(F)c(F)c2F)cc1)Cc1ccc(OCc2c(F)c(F)c(F)c(F)c2F)cc1
EC50 [1]: 2.52 µM and 2.97 µM
EC50 [2]: 2.07 µM
EC50 ([2]; Plasmodium falciparum): 2.16 µM
EC50 ([3]; Plasmodium falciparum): 0.68 µM

Compound: COc1ccc(CN(CCCCN)Cc2ccccc2)cc1.O=C(O)C(F)(F)F
EC50 [1]: 1.45 µM
EC50 ([2]; Plasmodium falciparum): 2.23 µM
EC50 [3]: Not Active

Compound: CCCCOc1ccc(CN(CCCCN)Cc2ccc(OCCCC)cc2)cc1
EC50 [1]: 2.47 µM and 3.92 µM
EC50 [2]: 2.9 µM
EC50 ([2]; Plasmodium falciparum): 4.18 µM
EC50 ([3]; Plasmodium falciparum): 4.09 µM

Compound: NCCCCN(Cc1ccccc1)Cc1ccc(Br)o1.O=C(O)C(F)(F)F
EC50 [1]: 21.1 µM
EC50 [2]: Not Active
EC50 [3]: Not Active

Compound: COc1ccc(CN(CCCN)Cc2ccccc2)cc1.O=C(O)C(F)(F)F
EC50 [1]: 4.52 µM
EC50 [2]: Not Active
EC50 [3]: Not Active

Compound: COc1ccc(CN(CCCCN)Cc2ccccc2)cc1OC.O=C(O)C(F)(F)F
EC50 [1]: 8.36 µM
EC50 ([2]; Plasmodium falciparum): 3.62 µM
EC50 [3]: Not Active

Compound: COc1ccc(CN(CCCCN)Cc2ccc(OC)cc2)cc1.O=C(O)C(F)(F)F
EC50 [1]: 10.6 µM
EC50 ([2]; Plasmodium falciparum): 6.78 µM
EC50 [3]: Not Active

Compound: COc1ccc(OC)c(CN(CCCCN)Cc2cc(OC)ccc2OC)c1.O=C(O)C(F)(F)F
EC50 [1]: 5.37 µM
EC50 [2]: Not Active
EC50 [3]: Not Active

Compound: NCCCCN(Cc1ccccc1)Cc1ccc(C(=O)O)cc1.O=C(O)C(F)(F)F
EC50 [1]: 10.3 µM
EC50 [2]: Not Active
EC50 [3]: Not Active

Compound: NCCCCN(Cc1ccc(OCCc2ccccc2)cc1)Cc1ccc(OCCc2ccccc2)cc1.O=C(O)C(F)(F)F
EC50 [1]: 13 µM and 27 µM
EC50 [2]: Not Active
EC50 [3]: 8.68 µM
EC50 ([3]; Plasmodium falciparum): 7.43 µM

Compound: NCCCN(Cc1ccc(Br)o1)Cc1ccc(Br)o1.O=C(O)C(F)(F)F
EC50 [1]: 19.8 µM
EC50 [2]: Not Active
EC50 [3]: Not Active

EC50 [1]: 0.01 µM
Compound: C[C@@H]1[C@H](O)[C@@H](C)/C=C/C=C/CC/C=C/C=C/C=C/C=C/[C@H](O[C@@H]2O[C@H](C)[C@@H](O)[C@H](N)[C@@H]2O)C[C@@H]2O[C@](O)(C[C@@H](O)C[C@@H](O)[C@H](O)CC[C@@H](O)C[C@@H](O)CC(=O)O[C@H]1C)C[C@H](O)[C@H]2C(=O)O

Compound: NCCCCN(Cc1ccc(OCc2ccccc2)c(OCc2ccccc2)c1)Cc1ccc(OCc2ccccc2)c(OCc2ccccc2)c1
EC50 [1]: 1.86 µM
EC50 ([2]; Plasmodium falciparum): 2.23 µM
EC50 ([3]; Plasmodium falciparum): 3.47 µM

Compound: NCCCN(Cc1ccc(OCc2ccc(Cl)c(Cl)c2)cc1)Cc1ccc(OCc2ccc(Cl)c(Cl)c2)cc1
EC50 [1]: 0.97 µM and 2.57 µM
EC50 [2]: 4.11 µM
EC50 ([2]; Plasmodium falciparum): 3.2 µM
EC50 [3]: 1.54 µM
EC50 ([3]; Plasmodium falciparum): 1.34 µM

Compound: COc1cccc(CN(CCCN)Cc2cccc(OC)c2)c1.O=C(O)C(F)(F)F
EC50 [1]: 12.6 µM
EC50 [2]: Not Active
EC50 [3]: Not Active

Compound: NCCCN(Cc1ccccc1)Cc1ccccc1.O=C(O)C(F)(F)F
EC50 [1]: 24.2 µM
EC50 [2]: Not Active
EC50 [3]: Not Active

Compound: COc1cccc(CN(CCCCN)Cc2cccc(OC)c2)c1.O=C(O)C(F)(F)F
EC50 [1]: 10.8 µM
EC50 ([2]; Plasmodium falciparum): 6.1 µM
EC50 [3]: Not Active

Compound: NCCCN(Cc1ccccc1)Cc1ccc(Cl)cc1.O=C(O)C(F)(F)F
EC50 [1]: 1.86 µM
EC50 ([2]; Plasmodium falciparum): 7.7 µM
EC50 [3]: Not Active

Compound: COc1cc(CN(CCCN)Cc2ccc(OCc3ccccc3)c(OC)c2)ccc1OCc1ccccc1
EC50 [1]: 0.67 µM
EC50 ([2]; Plasmodium falciparum): 2.81 µM
EC50 ([3]; Plasmodium falciparum): 2.97 µM

Compound: NCCCCN(Cc1ccc(OCc2ccc(Cl)c(Cl)c2)cc1)Cc1ccc(OCc2ccc(Cl)c(Cl)c2)cc1
EC50 [1]: 3.82 µM and 3.66 µM
EC50 [2]: 2.59 µM and 0.69 µM
EC50 ([3]; Plasmodium falciparum): 1.16 µM

Compound: NCCCN(Cc1ccc(OCCc2ccccc2)cc1)Cc1ccc(OCCc2ccccc2)cc1.O=C(O)C(F)(F)F
EC50 [1]: 14.2 µM and 11.1 µM
EC50 [2]: Not Active
EC50 [3]: 6.94 µM
EC50 ([3]; Plasmodium falciparum): 4.25 µM

Compound: CC(C)c1ccc(CN(CCCCN)Cc2ccc(C(C)C)cc2)cc1.O=C(O)C(F)(F)F
EC50 [1]: 3 µM
EC50 ([2]; Plasmodium falciparum): 7.29 µM
EC50 [3]: Not Active

Compound: COc1cc(CN(CCCN)Cc2cc(OC)cc(OC)c2)cc(OC)c1.O=C(O)C(F)(F)F
EC50 [1]: 9.42 µM
EC50 [2]: Not Active
EC50 [3]: Not Active

Compound: NCCCCN(Cc1ccccc1)Cc1ccc(OCc2ccccc2)cc1
EC50 [1]: 0.37 µM
EC50 ([2]; Plasmodium falciparum): 7.78 µM
EC50 ([3]; Plasmodium falciparum): 5.73 µM

Compound: NCCCCN(Cc1ccc(Cl)cc1)Cc1ccc(Cl)cc1.O=C(O)C(F)(F)F
EC50 [1]: 3.77 µM
EC50 [2]: Not Active
EC50 [3]: Not Active

Compound: NCCCN(Cc1ccccc1)Cc1ccc(OCc2ccccc2)cc1
EC50 [1]: 1.37 µM
EC50 ([2]; Plasmodium falciparum): 3.79 µM
EC50 ([3]; Plasmodium falciparum): 4.43 µM

Compound: COc1ccc(CN(CCCN)Cc2ccccc2)cc1OC.O=C(O)C(F)(F)F
EC50 [1]: 3.97 µM
EC50 ([2]; Plasmodium falciparum): 5.6 µM
EC50 [3]: Not Active

Compound: NCCCCN(Cc1ccc(OCCCc2ccccc2)cc1)Cc1ccc(OCCCc2ccccc2)cc1
EC50 [1]: 2.46 µM and 2.96 µM
EC50 [2]: 2.53 µM
EC50 ([2]; Plasmodium falciparum): 3.07 µM
EC50 [3]: 1.04 µM
EC50 ([3]; Plasmodium falciparum): 1.12 µM

Compound: NCCCN(Cc1ccccc1)Cc1ccc(C(=O)O)cc1.O=C(O)C(F)(F)F
EC50 [1]: 8.97 µM
EC50 [2]: Not Active
EC50 [3]: Not Active

Compound: COc1cc(CN(CCCCN)Cc2ccc(OCc3ccccc3)c(OC)c2)ccc1OCc1ccccc1
EC50 [1]: 1.83 µM
EC50 ([2]; Plasmodium falciparum): 1.68 µM
EC50 ([3]; Plasmodium falciparum): 1.07 µM

Compound: NCCCN(Cc1ccc(OCc2ccccc2)c(OCc2ccccc2)c1)Cc1ccc(OCc2ccccc2)c(OCc2ccccc2)c1
EC50 [1]: 1.64 µM
EC50 ([2]; Plasmodium falciparum): 3.03 µM
EC50 ([3]; Plasmodium falciparum): 2.9 µM

Compound: NCCCN(Cc1ccc(Cl)cc1)Cc1ccc(Cl)cc1.O=C(O)C(F)(F)F
EC50 [1]: 8.69 µM
EC50 ([2]; Plasmodium falciparum): 10.1 µM
EC50 [3]: Not Active

Compound: NCCCCN(Cc1ccc(Br)o1)Cc1ccc(Br)o1.O=C(O)C(F)(F)F
EC50 [1]: 19.2 µM
EC50 [2]: Not Active
EC50 [3]: Not Active

EC50 [1]: 1.35 µM
Compound: N=C(N)c1ccc(OCCCCCOc2ccc(C(=N)N)cc2)cc1 [PENTAMIDINE]

Compound: NCCCN(Cc1ccc(OCc2ccccc2)cc1)Cc1ccc(OCc2ccccc2)cc1
EC50 [1]: 1.12 µM
EC50 ([2]; Plasmodium falciparum): 6.03 µM
EC50 ([3]; Plasmodium falciparum): 4.99 µM

Compound: NCCCN(Cc1ccccc1)Cc1ccc(Cc2ccc(Br)o2)cc1.O=C(O)C(F)(F)F
EC50 [1]: 20.6 µM
EC50 ([2]; Plasmodium falciparum): 5.72 µM
EC50 [3]: Not Active

Compound: CCN(CC)CCCC(C)Nc1ccnc2cc(Cl)ccc12 (stereo not drawn) [CHLOROQUINE]
EC50 ([2]; Plasmodium falciparum): 0.31 µM
EC50 ([3]; Plasmodium falciparum): 0.014 µM

Compound: CC1=C2[C@H]3OC(=O)[C@@H](C)[C@@H]3[C@@H](O)C[C@@]2(C)C=CC1=O
EC50 ([2]; Plasmodium falciparum): 0.02 µM
EC50 ([3]; Plasmodium falciparum): 0.02 µM

Reference: ChEMBL document CHEMBL1147421, “Diamine derivatives with antiparasitic activities” (Bioorg Med Chem Lett, 2004)
